The values below come from patent publication US20160185774A1, “Anti-Infective Compounds” (priority 2013, published 2016).

Each structure is given as a SMILES string. Values after ≈ are worked out from the molar mass of the structure shown.

For the test, the system named is M. tuberculosis. The test is described as follows: microbe, parasite or virus in culture. The test is classed as cell-based. The following applies: Mycobacterium tuberculosis, 120 h; read-out: QUM (MIC80).
`CCc1nc2ccc(Br)cn2c1C(=O)NCc1ccc(N2CCN(c3ccc(OC(F)(F)F)cc3)CC2)cc1` [Compound 197]: the MIC80 was under 1 µM.
Next, `CCc1nc2c(C(F)(F)F)cccn2c1C(=O)NCc1ccc(N2CCN(c3ccc(F)cc3)CC2)cc1` [Compound 198]: 1 to 20 µM (≈ 0.526 to 10.5 µg/mL); `CCc1nc2c(Br)cccn2c1C(=O)NCc1ccc(N2CCN(c3ccc(Cl)cc3)CC2)cc1` [Compound 199]: under 1 µM; `CCc1nc2c(OC)cccn2c1C(=O)NCc1ccc(N2CCN(c3ccc(OC(F)(F)F)cc3)CC2)cc1` [Compound 200]: 1 to 20 µM (≈ 0.554 to 11.1 µg/mL).
For `CCc1nc2ccc(Br)cn2c1C(=O)NCc1ccc(N2CCN(c3ccc(Cl)cc3)CC2)cc1` [Compound 201], the MIC80 is under 1 µM.
With `CCc1nc2c(C(F)(F)F)cccn2c1C(=O)NCc1ccc(N2CCN(c3ccc(OC(F)(F)F)cc3)CC2)cc1` [Compound 202], the MIC80 lay within 1 to 20 µM (≈ 0.592 to 11.8 µg/mL).
Next, `CCc1nc2cc(C(F)(F)F)ccn2c1C(=O)NCc1ccc(N2CCN(c3ccc(OC(F)(F)F)cc3)CC2)cc1` [Compound 203]: under 1 µM.
For the compound `CCc1nc2cc(Cl)ccn2c1C(=O)NCc1ccc(N2CCN(c3ccc(C(F)(F)F)cc3)CC2)cc1` [Compound 204], the MIC80 was under 1 µM.
With `CCc1nc2cc(Cl)ccn2c1C(=O)NCc1ccc(N2CCC(c3ccc(OC)cc3)CC2)cc1` [Compound 205], the MIC80 was under 1 µM.
Next, `CCc1nc2cc(C(F)(F)F)ccn2c1C(=O)NCc1ccc(N2CCN(c3ccc(C(F)(F)F)cc3)CC2)cc1` [Compound 206]: under 1 µM.
On to `CCc1nc2cc(Br)ccn2c1C(=O)NCc1ccc(N2CCN(c3ccc(C)cc3)CC2)cc1` [Compound 207], for which the MIC80 was under 1 µM.
Next, `CCc1nc2cc(Br)ccn2c1C(=O)NCc1ccc(N2CCN(c3ccc(OC)cc3)CC2)cc1` [Compound 208]: under 1 µM.
Turning to `CCc1nc2c(C(F)(F)F)cccn2c1C(=O)NCc1ccc(N2CCN(c3ccc(Cl)cc3)CC2)cc1` [Compound 209], the MIC80 is 1 to 20 µM (≈ 0.542 to 10.8 µg/mL).
Turning to `CCc1nc2ccc(OC)cn2c1C(=O)NCc1ccc(N2CCN(c3ccc(C(F)(F)F)cc3)CC2)cc1` [Compound 210], the MIC80 is under 1 µM.
Consider `CCc1nc2cc(C(F)(F)F)ccn2c1C(=O)NCc1ccc(N2CCN(c3ccc(Cl)cc3)CC2)cc1` [Compound 211], for which the MIC80 is under 1 µM.
Consider `CCc1nc2c(OC)cccn2c1C(=O)NCc1ccc(N2CCC(c3ccc(Cl)cc3)CC2)cc1` [Compound 212], for which the MIC80 fell in the range of 1 to 20 µM (≈ 0.503 to 10.1 µg/mL).
Take `CCc1nc2c(Br)cccn2c1C(=O)NCc1ccc(N2CCC(c3ccc(Cl)cc3)CC2)cc1` [Compound 213]: the MIC80 is under 1 µM.
Next, `CCc1nc2cc(Br)ccn2c1C(=O)NCc1ccc(N2CCN(c3ccc(C(F)(F)F)cc3)CC2)cc1` [Compound 214]: under 1 µM.
For the compound `CCc1nc2c(OC)cccn2c1C(=O)NCc1ccc(N2CCC(c3ccc(C)cc3)CC2)cc1` [Compound 215], the MIC80 is 1 to 20 µM (≈ 0.483 to 9.65 µg/mL).
For `CCc1nc2ccc(C)cn2c1C(=O)NCc1ccc(N2CCC(c3ccccc3)CC2)cc1` [Compound 216], the MIC80 is under 1 µM.
Next, `CCc1nc2c(C(F)(F)F)cccn2c1C(=O)NCc1ccc(N2CCN(c3ccc(C(F)(F)F)cc3)CC2)cc1` [Compound 217]: 1 to 20 µM (≈ 0.576 to 11.5 µg/mL); `CCc1nc2c(Br)cccn2c1C(=O)NCc1ccc(N2CCN(c3ccc(C(F)(F)F)cc3)CC2)cc1` [Compound 218]: under 1 µM.
Take `CCc1nc2cc(Br)ccn2c1C(=O)NCc1ccc(N2CCC(c3ccc(C)cc3)CC2)cc1` [Compound 219]: the MIC80 is under 1 µM.
Regarding `CCc1nc2cc(OC)ccn2c1C(=O)NCc1ccc(N2CCN(c3ccc(Cl)cc3)CC2)cc1` [Compound 220], the MIC80 is under 1 µM.
With `CCc1nc2cc(Cl)ccn2c1C(=O)NCc1ccc(N2CCC(c3ccc(C)cc3)CC2)cc1` [Compound 221], the MIC80 was under 1 µM.
Next, `CCc1nc2ccc(C)cn2c1C(=O)NCc1ccc(N2CCC(c3ccc(OC)cc3)CC2)cc1` [Compound 222]: under 1 µM; `CCc1nc2ccc(C(F)(F)F)cn2c1C(=O)NCc1ccc(N2CCC(c3ccc(OC(F)(F)F)cc3)CC2)cc1` [Compound 223]: under 1 µM; `CCc1nc2c(Cl)cccn2c1C(=O)NCc1ccc(N2CCC(c3ccc(OC(F)(F)F)cc3)CC2)cc1` [Compound 224]: under 1 µM.
With `CCc1nc2c(C)cccn2c1C(=O)NCc1ccc(N2CCC(c3ccc(F)cc3)CC2)cc1` [Compound 225], the MIC80 is under 1 µM.
Regarding `CCc1nc2ccc(C(F)(F)F)cn2c1C(=O)NCc1ccc(N2CCC(c3ccc(Cl)cc3)CC2)cc1` [Compound 226], the MIC80 was under 1 µM.
For the compound `CCc1nc2ccc(C(F)(F)F)cn2c1C(=O)NCc1ccc(N2CCC(c3ccc(F)cc3)CC2)cc1` [Compound 227], the MIC80 was under 1 µM.
As for `CCc1nc2cc(C(F)(F)F)ccn2c1C(=O)NCc1ccc(N2CCC(c3ccc(OC(F)(F)F)cc3)CC2)cc1` [Compound 228], the MIC80 was under 1 µM.
To `CCc1nc2cc(F)ccn2c1C(=O)NCc1ccc(N2CCN(c3ccc(C(F)(F)F)cc3)CC2)cc1` [Compound 229] belongs under 1 µM.
Consider `CCc1nc2ccccn2c1C(=O)NCc1ccc(N2CCC(c3ccc(C(F)(F)F)cc3)CC2)cc1` [Compound 230], for which the MIC80 is under 1 µM.
Regarding `CCc1nc2cc(C)ccn2c1C(=O)NCc1ccc(N2CCC(c3ccc(C)cc3)CC2)cc1` [Compound 231], the MIC80 is under 1 µM.
To `CCc1nc2ccc(Cl)cn2c1C(=O)NCc1ccc(N2CCC(NC(=O)Cc3ccc(F)cc3)CC2)cc1` [Compound 232] belongs over 20 µM; to `CCc1nc2ccc(Cl)cn2c1C(=O)NCc1ccc(N2CCC(OCc3ccccc3)CC2)cc1` [Compound 233], under 1 µM; to `CCc1nc2ccc(Cl)cn2c1C(=O)NCc1ccc(N2CCC(NC(=O)c3ccc(F)cc3)CC2)cc1` [Compound 234], over 20 µM.
With `CCc1nc2ccc(Cl)cn2c1C(=O)NCc1ccc(N2CCN(C(=O)c3ccc(F)cc3)CC2)cc1` [Compound 235], the MIC80 was under 1 µM.
Next, `CCc1nc2ccc(Cl)cn2c1C(=O)NCc1ccc(N2CCN(C(=O)Cc3ccc(F)cc3)CC2)cc1` [Compound 236]: under 1 µM; `CCc1nc2ccc(Cl)cn2c1C(=O)NCc1ccc(N2CCC(C)(O)CC2)cc1` [Compound 237]: under 1 µM.
As for `CCc1nc2ccc(Cl)cn2c1C(=O)NCc1ccc(N2CCC(O)(CC)CC2)cc1` [Compound 238], the MIC80 is under 1 µM.
On to `CCc1nc2ccc(Cl)cn2c1C(=O)NCc1ccc(N2CCC(O)(c3ccccc3)CC2)cc1` [Compound 239], for which the MIC80 was under 1 µM.
As to `CCc1nc2ccc(Cl)cn2c1C(=O)NCc1ccc(N2CCC(C(=O)c3ccc(F)cc3)CC2)cc1` [Compound 240], the MIC80 was under 1 µM.
For the compound `CCc1nc2ccc(Cl)cn2c1C(=O)NCc1ccc(N2CCC(C(=O)c3ccc(OC(F)(F)F)cc3)CC2)cc1` [Compound 241], the MIC80 is under 1 µM.
As for `CCc1nc2ccc(Cl)cn2c1C(=O)NCc1ccc(N2CCC(C(=O)Cc3ccc(F)cc3)CC2)cc1` [Compound 242], the MIC80 is under 1 µM.
For `CCc1nc2ccc(Cl)cn2c1C(=O)NCc1ccc(C2CCN(C(=O)c3ccc(F)cc3)CC2)cc1` [Compound 243], the MIC80 is under 1 µM.
Consider `CCc1nc2ccc(Cl)cn2c1C(=O)NCc1ccc(/C=C/c2ccc(F)cc2)cc1` [Compound 246], for which the MIC80 was under 1 µM.
Regarding `CCc1nc2ccccn2c1C(=O)NCc1ccc(CC2CCOCC2)cc1` [Compound 252], the MIC80 was under 1 µM.
Regarding `CCc1nc2ccc(Cl)cn2c1C(=O)NCc1nc2ccc(Cl)cc2[nH]1` [Compound 260], the MIC80 is over 20 µM.
Regarding `CCc1nc2cc(Cl)ccn2c1C(=O)NCc1ccc2c(c1)ncn2C` [Compound 272], the MIC80 fell in the range of 1 to 20 µM (≈ 0.368 to 7.36 µg/mL).
As to `CCc1nc2ccc(Cl)cn2c1C(=O)NCc1ccc2cc[nH]c2c1` [Compound 273], the MIC80 is under 1 µM.
As to `CCc1nc2ccc(Cl)cn2c1C(=O)NCc1ccc2ncn(Cc3ccc(OC(F)(F)F)cc3)c2c1` [Compound 274], the MIC80 is 1 to 20 µM (≈ 0.528 to 10.6 µg/mL).
`CCc1nc2cc(Cl)ccn2c1C(=O)NCc1ccc2ncn(Cc3ccc(OC(F)(F)F)cc3)c2c1` [Compound 275]: the MIC80 is over 20 µM.
Regarding `CCc1nc2cc(Cl)ccn2c1C(=O)NCc1ccc2nc[nH]c2c1` [Compound 276], the MIC80 is over 20 µM.
On to `CCc1nc2cc(Cl)ccn2c1C(=O)NCc1ccc(NC(=O)NC(C)(C)C)cc1` [Compound 277], for which the MIC80 was over 20 µM.
For the compound `CCc1nc2ccc(Cl)cn2c1C(=O)NCc1ccc(NC(=O)NC(C)(C)C)cc1` [Compound 278], the MIC80 is 1 to 20 µM (≈ 0.428 to 8.56 µg/mL).
Next, `CCc1nc2cc(Cl)ccn2c1C(=O)NCc1csc(-c2ccc(OC(F)(F)F)cc2)n1` [Compound 279]: under 1 µM; `CCc1nc2ccc(Cl)cn2c1C(=O)NCc1csc(-c2ccc(OC(F)(F)F)cc2)n1` [Compound 280]: under 1 µM; `CCc1nc2c(F)cccn2c1C(=O)NCc1cccc(N2CCOCC2)c1` [Compound 281]: 1 to 20 µM (≈ 0.382 to 7.65 µg/mL).
For `Cc1nc2cc(Cl)ccn2c1C(=O)NCc1ccc(N2CCC(c3ccc(F)cc3)CC2)cc1` [Compound 297], the MIC80 was under 1 µM.
`Cc1nc2cc(Cl)ccn2c1C(=O)NCc1ccc(N2CCC(c3ccc(C(F)(F)F)cc3)CC2)cc1` [Compound 298]: the MIC80 was under 1 µM.
In the case of `Cc1ccc(C2CCN(c3ccc(CNC(=O)c4c(C)nc5cc(Cl)ccn45)cc3)CC2)cc1` [Compound 299], the MIC80 was under 1 µM.
Next, `Cc1nc2cc(Cl)ccn2c1C(=O)NCc1ccc(N2CCC(c3ccc(OC(F)(F)F)cc3)CC2)cc1` [Compound 300]: under 1 µM.
As for `CCc1nc2ccc(Cl)cn2c1C(=O)NCc1ccc(C(=O)Nc2ccc(F)cc2)cc1` [Compound 301], the MIC80 is under 1 µM.
Regarding `CCc1nc2cc(Cl)ccn2c1C(=O)NCc1ccc(C(=O)Nc2ccc(F)cc2)cc1` [Compound 302], the MIC80 was under 1 µM.
For `CCc1nc2ccc(Cl)cn2c1C(=O)NCc1ccc(C(=O)CN2CCOCC2)cc1` [Compound 303], the MIC80 is under 1 µM.
Turning to `CCc1nc2cc(Cl)ccn2c1C(=O)NCc1ccc(C(=O)CN2CCOCC2)cc1` [Compound 304], the MIC80 fell in the range of 1 to 20 µM (≈ 0.441 to 8.82 µg/mL).
With `CCc1nc2ccc(Cl)cn2c1C(=O)NCc1ccc(C(=O)N(C)c2ccc(F)cc2)cc1` [Compound 305], the MIC80 was 1 to 20 µM (≈ 0.465 to 9.3 µg/mL).
